Test [1] deals with walnut twig beetle (WTB), Pityophthorus juglandis. Put plainly: Example 1 Field Test 2: flight response to X with and without racemic conophthorin. In kind it is in vivo. Particulars: yellow sticky card traps, Davis CA. How it is done: Field Bioassays of Semiochemicals. To test the attractiveness of the various compounds of interest, some of the commercially available materials listed above were poured into 15 ml capped polyethylene bottles (Product #s A1-1050/002, A1-1055/002; Contech Enterprises Inc., Delta, British Columbia, Canada) and attached to yellow sticky card traps (Trécé, Adair, OK). In addition, synthesized (+) and (−) enantiomers of trans-conophthorin were tested in 400 μl polyethylene Eppendorf microcentrifuge tubes. Four field studies were conducted (Table 2) that tested the flight responses to: 3-methyl-2-buten-l-ol and related isomers (Field Test 1); 3-methyl-2-buten-l-ol with and without racemic trans-conophthorin (Field Test 2); 3-methyl-2-buten-l-ol with and without the purified enantiomers of trans-conophthorin (Field Test 3); and 3-methyl-2-buten-l-ol with and without racemic chalcogran (Field Test 4).
Statistical Analysis. Field Tests 1-4 were each analyzed for treatment effect by using Friedman's non-parametric analysis of variance. (See Zar, J. H. 2010. Biostatistical Analysis, 5th Ed. Pearson Prentice Hall, New Jersey). Males and females were subjected to separate analyses. All treatments within experiments yielding a significant treatment effect were compared by using an a posteriori Nemenyi test (Zar 2010) with experimentwise α=0.05. Sex ratios of responding WTB were determined using Cochran's method for unbiased sampling (See Cochran, W. G. 1977. Sampling Techniques, 3rd ed. John Wiley, New York), with 95% confidence intervals calculated by using the Clopper-Pearson method. (See Zar, J. H. 2010. Biostatistical Analysis, 5th Ed. Pearson Prentice Hall, New Jersey).

Test [2] relates to WTB. Put plainly: Trap height: clear plexiglass panel traps baited with X. In kind it is in vivo, Pityophthorus juglandis. Conditions: 5 mg/d, 15 ml load. As to the method:
Effect of Trap Height on Trap Catch. The flight response of WTB to clear plexiglass panel traps coated with Stikem Special (Seabright Labs, Emeryville, Calif.) and baited with 3-methyl-2-buten-1-ol (5 mg/d, 15 ml load, polyethylene bottle) located at three heights (2, 3, and 4 m above the forest floor) was tested. The traps were placed in the crowns of J. hindsii located in a native riparian stand at Shadow Cliffs Regional Park, Alameda Co., Calif. from early to mid-spring. Both sides of a single 23 cm×14 cm sheet of clear plexiglass were covered with Stikem Special adhesive and the sheet was hung from string at each of the 3 heights from a single J. hindsii branch. The aggregation pheromone bait was hung immediately above each trap. Each group of three traps was assigned a unique position within the stand and treated as a block in a completely randomized block design (N=22). Traps within a block were all collected on the same day; blocks were collected after 2 to 7 days (after periodic flights of WTB).
(§1) Statistical Analyses. Analyses of treatment effects for the tests of trap type were performed by using Friedman's non-parametric analysis of variance or a sign test, depending on the number of treatments. (See Zar, J. H. 2010. Biostatistical Analysis. 5th ed. Pearson Prentice Hall, Englewood Cliffs, N.J.) Analysis of treatment effects for the Rain•X experiment was performed by using a Wilcoxon paired sample test. Id. Multiple comparisons for experiments with more than two treatments were performed with an a posteriori Nemenyi test with experimentwise α=0.05. Id. In all cases, male and female WTB were analyzed separately. Proportions of female WTB responding to treatments were calculated and 95% confidence intervals determined by using the Clopper-Pearson method. Id.

The test system of test [3] is WTB. Description: Trap type: clear sticky panel vs 4-unit Lindgren funnel traps baited with X. In kind it is in vivo, Pityophthorus juglandis. Particulars: for trap catches, female WTB / trap catches, male WTB: 5 mg/d, 15 ml load. How it is done: In another set of experiments, the response of WTB to clear sticky panel traps and 4-unit Lindgren funnel traps was tested. Both were baited with 3-methyl-2-buten-1-ol (5 mg/d, 15 ml load). The clear plexiglass panel traps were coated with Stikem Special (Seabright Labs, Emeryville, Calif.). The experiment was conducted in late spring in a native riparian stand of J. hindsii at Shadow Cliffs Regional Park, Alameda Co., Calif. The pairs of traps were hung at a height of 3 m in the crowns of J. hindsii and arranged in six spatial blocks. Treatments were re-randomized among the trap stations each time that the traps were emptied (approx. weekly, after periodic WTB flights). Trap catches of males and females were normalized by the available trapping surface area for each trap type.
as §1

Where [4] appears, read: about one month late spring, N=16.

As for `CC(C)=CCO` [X, 3-methyl-2-buten-1-ol], the “proportion of females responding” value in test [1] worked out at 0.65; with WTB [2] (clear plexiglass panel trap at 2 m), 0.68; in the test on WTB [2] (clear plexiglass panel trap at 3 m) it was 0.64; in the test with WTB [2] (clear plexiglass panel trap at 4 m), 0.72; in the test with WTB [3] (funnel traps), 0.59; in the test on WTB [3] (sticky traps), 0.67. Further, the “trap catches, female WTB” value in test [1] (setting [4]) came out at 459; with WTB [3] (4-unit Lindgren funnel traps), 160; in the test on WTB [3] (clear sticky panel traps), 449. Moreover, the “trap catches, male WTB” value in test [1] (setting [4]) is 250; in the test on WTB [3] (4-unit Lindgren funnel traps) it was 110; in the test on WTB [3] (clear sticky panel traps), 216.

For the origin of these results see patent publication US20130014428A1, “METHODS OF MONITORING AND CONTROLLING THE WALNUT TWIG BEETLE, PITYOPHTHORUS JUGLANDIS” (The United States of America as Represented by the …, priority 2011, published 2013).
